According to patent publication EP0593765A1, “6-SUBSTITUTED LIPID A ANALOG” (priority 1991, dated 1993):

Columns and labels:
[1] = test system: spleen cells; experiment: Mitogen activity (³H-thymidine uptake into spleen cells); type: cell-based, C3H/HeN mouse; settings: 48 hours incubation
Description: The mitogen activity was evaluated in the following experiment [see Eur. J. Immunol., Vol. 14, 109 - 114, 1984].
The spleen of C3H/HeN mouse (male, 6 - 10 weeks old) was aseptically removed, rubbed and loosened in MEM, and passed through stainless steel mesh, and spleen cells were sampled. After hemolyzing the erythrocytes mixed in the spleen cells, the cells were suspended in RPMI 1640 medium containing 5% FBS and presented for the experiment.
The mitogen activity of the compound of the invention was evaluated by measuring the quantity of ³H-thymidine taken into the spleen cells treated with the compound of the invention. That is, the spleen cells adjusted to 5 × 10⁶ cells/well (100 µℓ) were seeded in a 96-well plate, and the compound of the invention (100 µℓ) at specified concentration was added to the spleen cells. After incubation for 48 hours at 37°C in the presence of 5% carbon dioxide, 1 µCi/well (50 µℓ) of ³H-thymidine was added to the incubated cells, which were incubated for further 4 hours. The cells were washed in phosphate buffer saline (PBS), and the titer of ³H-thymidine (radioactivity) taken in the cells was determined by liquid scintillation counter. […]

[2] = test system: neutrophils; experiment: O₂⁻ production stimulating activity in neutrophils; type: cell-based, C3H/HeN mouse; settings: compound 10 µg/mℓ, 37°C for 60 minutes, then cytochrome C (80 µM) and FMLP (0.1 µM); SOD-inhibitable cytochrome C reduction
Description: The O₂⁻ production stimulating activity in neutrophils was evaluated in the following experimental system [see J. Exp. Med., Vol. 160, 1656 - 1671, 1984].
In the peritoneal cavity of C3H/HeN mouse (male, 8 - 9 weeks old), physiological saline containing 0.2% (w/v) of casein was administered. Three hours later, peritoneal exudate cells (90% or more of which are neutrophils) induced in the peritoneal cavity were collected. These cells (1.7 × 10⁶ cells/ml/tube) were incubated in the presence of the compound of the invention (10 µg/mℓ) at 37°C for 60 minutes, and cytochrome C (80 µM) and fomyl-methionyl-leucyl-phenylalanine (FMLP) (0.1 µM) were added. After reaction for 10 minutes at 37°C in the presence of or in the absence of superoxide dismutase (SOD), the SOD-inhibitable cytochrome C reduction quantity was calculated from the difference of absorbances at 550 nm and 541.7 nm and the molar absorption coefficient (16.5 × 10³). The O₂⁻ production stimulating activity was expressed in the following stimulation percentage. [formula] The compounds of the invention presented the activities as shown in the below table.

[3] = test system: interleukin-1 (IL-1); experiment: IL-1 producing activity (peripheral blood monocyte fraction; supernatant measured on A375 Met-Mix cells); type: cell-based, human; settings: 50 µg of compound, 1 × 10⁶ cells/well, 48 hours at 37°C; reciprocal of supernatant dilution showing 50% inhibition
Description: The producing activity of interleukin-1 (IL-1) was determined in the following experiment [see Biochem. Biopys. Res. Comm., Vol. 154, 1189 - 1196, 1988].
From 50 mℓ of human peripheral blood, buffy coat was isolated, and peripheral blood monocyte fraction was obtained by using Lymphoprep (Wako Pharmaceutical). After hemolyzing mixed erythrocytes, cells were rinsed twice in Dulbecco's modified Eagle medium (MEM), and suspended in the RPMI 1640 medium containing 5% fetal cow serum (FCS) and 2.5 × 10⁻⁵ M 2-mercaptoethanol. The cells (1 × 10⁶ cells/well) were incubated in a 24-well plate containing 50 µg (50 µℓ) of the compound of the invention for 48 hours at 37°C in the presence of 5% carbon dioxide, and the supernatant of culture was samples as IL-1 induction supernatant. The IL-1 activity in the IL-1 induction supernatant was evaluated by measuring the growth inhibitory activity of IL-1 susceptible human melanoma cell A375 Met-Mix. The cells of A375 Met-Mix (2 × 10³ cells/0.1 mℓ/well) were suspended in RPMI 1640 medium containing 10% FCS, and the IL-1 induction supernatant (0.1 mℓ/well) diluted in steps was added and incubated in a 96-well plate for 96 hours at 37°C in the presence of 5% carbon dioxide. After incubation, the viable cells were fixed with methanol, and the cells were stained with 0.2% crystal violet, and the cells were dissolved with 1% SDS, and the absorbance at 550 nm was measured. […]

[4] = Lethal toxicity by galactosamine loading; set-up: species or system C57BL mouse; settings: mouse, in vivo, ip; 10 mg D-galactosamine hydrochloride intraperitoneally, compound in the caudal vein immediately after; observed to the seventh day; read-out: LD₅₀ (Galactosamine load)
Description: The lethal toxicity by galactosamine loading was evaluated in the following experiment [see J. Biochem., Vol. 98, 395 - 406, 1985].
To C57BL mouse (female, 7 weeks old), 10 mg of D-galactosamine hydrochloride was intraperitoneally administered, and the compound of the invention was administered in the caudal vein immediately after that.

[5] = test system: TNF; experiment: TNF producing activity (TNF in serum measured by damage of L929 cells); type: in vivo, ICR mouse; settings: Corynebacterium parvum primed mouse, 10 µg/mouse intravenously nine days later, blood sampled 90 minutes later; reciprocal of serum dilution showing 50% cytotoxicity
Description: The producing activity of TNF was evaluated in the following experiment.
The first stimulating agent, 5% suspension (0.2 mℓ physiological saline) of Corynebacterium parvum was intravenously administered to ICR mouse (female, 6 - 7 weeks old). Nine days later, as the second stimulating agent, 10 µg/mouse of the compound of the invention was intravenously administered, and 90 minutes later, 0.5 to 1 mℓ of blood was sampled from the retro-orbital plexus. After being allowed to stand at room temperature for 5 to 6 hours, the blood was centrifuged at 7200 × g for 5 minutes to separate the serum. The serum was incubated at 56°C for 30 minutes for inactivation before use in the following experiment.
The TNF activity in serum was determined by measuring the damage of L929 cells were adjusted to a concentration of 6 × 10⁴ cells/well (0.1 mℓ) on the culture medium of RPMI 1640 containing 10% of fetal bovine serum (FBS) and 2 µg/mℓ of actinomycin D, and were seeded on a 96-well plates. The serum was diluted in steps in the RPMI 1640 medium with 10% FBS, and added to the cell by 0.1 mℓ for each. After incubation for 48 hours at 37°C, the viable cells were fixed with methanol. After staining the cells with 0.2% crystal violet, the cells were dissolved in 1% sodium dodecyl sulfate (SDS), and the absorbance at 550 nm was measured. […]

[6] = compound concentration 10 µg/mℓ

**Q.** Which results are given for `CCCCCCCCCCCCCCC(CCCCCCCCCCCC)C(=O)O[C@H]1[C@H](OP(=O)(O)O)[C@@H](CO)OC[C@@H]1NC(=O)C[C@H](O)CCCCCCCCCCC` (stereo partly shown) [Control compound, reference compound]?
**A.** Simulation index ([1]; compound concentration 1 µg/mℓ): 2.7; Simulation index [1, 6]: 18.3; Stimulation percentage [2]: 80; IL-1 titer [3]: 15 U/mℓ; LD50 at 168 h [4]: 0.0028 mg/kg; TNF titer in serum [5]: 538900 U/mℓ

**Q.** Which Simulation index ([1]; compound concentration 1 µg/mℓ) does the source give for `CCCCCCCCCCCCCCC(CCCCCCCCCCCC)C(=O)O[C@H]1[C@H](OP(=O)(O)O)[C@@H](COC(=O)CCC(=O)OC)OC[C@@H]1NC(=O)C[C@H](O)CCCCCCCCCCC` (stereo partly shown) [Example 1] here?
**A.** 14.8

**Q.** And the Simulation index [1, 6]?
**A.** 26.5

**Q.** And the Stimulation percentage [2]?
**A.** 363

**Q.** What about the IL-1 titer [3] of the same compound?
**A.** 24 U/mℓ

**Q.** What about the LD50 at 168 h [4] of the same compound?
**A.** 0.0299 mg/kg

**Q.** What about the “TNF titer in serum” value [5] of the same compound?
**A.** 727800 U/mℓ

**Q.** Which Simulation index ([1]; compound concentration 1 µg/mℓ) does the source give for `CCCCCCCCCCCCCCC(CCCCCCCCCCCC)C(=O)O[C@H]1[C@H](OP(=O)(O)O)[C@@H](COC(=O)C(C)(C)C)OC[C@@H]1NC(=O)C[C@H](O)CCCCCCCCCCC` (mixture of isomers) [Example 4, 1,5-Anhydro-2-deoxy-3-O-{(2RS)-2-dodecylhexadecanoyl}-2-{(3R)-3-hydroxytetradecanamido}-4-O-phosphono-6-O-pivaloyl-D-glucitol] here?
**A.** 5.1

**Q.** What about the Simulation index [1, 6] of the same compound?
**A.** 19.6

**Q.** And the Stimulation percentage [2]?
**A.** 293

**Q.** What about the IL-1 titer [3] of the same compound?
**A.** 16 U/mℓ
